Measurements taken from patent US11446287B2, “Compounds and methods for EP300 or CBP modulation and indications therefor” (Opna Immuno-Oncology SA, priority 2019, dated 2022).

molecular target: T1, Recombinant human EP300 containing the bromodomain (EP300-BD (1040-1161)) (Homo sapiens, UniProt Q09472); assay: EP300 Alphascreen binding assay
T1 construct: Recombinant human EP300 bromodomain (EP300-BD (1040-1161)); made in house; host or cells: E. coli BL21-CodonPlus (DE3), modified pET vector
T1 sequence (Q09472 1040-1161): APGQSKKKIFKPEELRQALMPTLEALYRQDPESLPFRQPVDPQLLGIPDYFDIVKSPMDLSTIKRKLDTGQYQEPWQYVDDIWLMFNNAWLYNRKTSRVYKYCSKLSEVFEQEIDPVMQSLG
How it was run: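 Displacement of a biotinylated acetyl-K56 histone H3 peptide from the N-His bromodomain construct (1040-1161) measured by AlphaScreen proximity, beads at 7.5 μg/ml final, read 60 min after addition. Protein, peptide and compound first incubated 1 h at room temperature, pH 7.5 HEPES buffer; IC50 by four-parameter logistic fit.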

SMILES | IC50 [nM]
CCOc1cc(C(=O)O)cc(OCC)c1-n1cc(-c2ccc(F)cc2F)c2ncc(-c3c(C)noc3C)cc21 [P-0186, 4-(3-(2,4-difluorophenyl)-6-(3,5-dimethylisoxazol-4-yl)-1H-pyrrolo[3,2-b]pyridin-1-yl)-3,5-diethoxybenzoic acid] | 0.1 to 1000
CCOc1cc(C(=O)O)cc(OCC)c1-n1cc(Cc2ccccn2)c2ncc(-c3c(C)noc3C)cc21 [P-0187, 4-(6-(3,5-dimethylisoxazol-4-yl)-3-(pyridin-2-ylmethyl)-1H-pyrrolo[3,2-b]pyridin-1-yl)-3,5-diethoxybenzoic acid] | 0.1 to 1000
Cc1noc(C)c1-c1cnc2c(c1)c(-c1ccc(C(=O)O)cc1OC(F)(F)F)cn2-c1ccccc1 [P-0188, 4-(5-(3,5-dimethylisoxazol-4-yl)-1-phenyl-1H-pyrrolo[2,3-b]pyridin-3-yl)-3-(trifluoromethoxy)benzoic acid] | 0.1 to 1000
Cc1ccncc1-n1cc(-c2ccc(C(=O)O)cc2OC(F)(F)F)c2cc(-c3c(C)noc3C)cnc21 [P-0189, 4-(5-(3,5-dimethylisoxazol-4-yl)-1-(4-methylpyridin-3-yl)-1H-pyrrolo[2,3-b]pyridin-3-yl)-3-(trifluoromethoxy)benzoic acid] | 0.1 to 1000
CCOc1cc(C(=O)O)cc(OCC)c1-n1cc(CC2CCC2)c2ncc(-c3c(C)nnn3C)cc21 [P-0190, 4-(3-(cyclobutylmethyl)-6-(1,4-dimethyl-1H-1,2,3-triazol-5-yl)-1H-pyrrolo[3,2-b]pyridin-1-yl)-3,5-diethoxybenzoic acid] | 0.1 to 1000
Cc1noc(C)c1-c1cnc2c(c1)c(-c1ccc(C(=O)O)cc1OC(F)(F)F)cn2CCN1CCOCC1 [P-0191, 4-(5-(3,5-dimethylisoxazol-4-yl)-1-(2-morpholinoethyl)-1H-pyrrolo[2,3-b]pyridin-3-yl)-3-(trifluoromethoxy)benzoic acid] | 0.1 to 1000
CCOc1cc(C(=O)O)cc(OCC)c1-n1cc(-c2ccc(C3CC3)nc2)c2ncc(-c3c(C)noc3C)cc21 [P-0192, 4-(3-(6-cyclopropylpyridin-3-yl)-6-(3,5-dimethylisoxazol-4-yl)-1H-pyrrolo[3,2-b]pyridin-1-yl)-3,5-diethoxybenzoic acid] | 0.1 to 1000
CCOc1cc(C(=O)O)cc(OCC)c1-n1cc(-c2cncc(Cl)c2)c2ncc(-c3c(C)noc3C)cc21 [P-0193, 4-(3-(5-chloropyridin-3-yl)-6-(3,5-dimethylisoxazol-4-yl)-1H-pyrrolo[3,2-b]pyridin-1-yl)-3,5-diethoxybenzoic acid] | 0.1 to 1000
CCOc1cc(C(=O)O)cc(OCC)c1-n1cc(-c2ccc(OC)cc2F)c2ncc(-c3c(C)noc3C)cc21 [P-0194, 4-(6-(3,5-dimethylisoxazol-4-yl)-3-(2-fluoro-4-methoxyphenyl)-1H-pyrrolo[3,2-b]pyridin-1-yl)-3,5-diethoxybenzoic acid] | 0.1 to 1000
CCOc1cc(C(=O)O)cc(OCC)c1-n1cc(-c2cnn(C)c2)c2ncc(-c3c(C)noc3C)cc21 [P-0195, 4-(6-(3,5-dimethylisoxazol-4-yl)-3-(1-methyl-1H-pyrazol-4-yl)-1H-pyrrolo[3,2-b]pyridin-1-yl)-3,5-diethoxybenzoic acid] | 0.1 to 1000
Cc1noc(C)c1-c1cnc2c(-c3ccccc3)cn(-c3ccc(C(=O)O)cc3OC(F)(F)F)c2c1 [P-0196, 4-(6-(3,5-dimethylisoxazol-4-yl)-3-phenyl-1H-pyrrolo[3,2-b]pyridin-1-yl)-3-(trifluoromethoxy)benzoic acid] | 0.1 to 1000
Cc1noc(C)c1-c1cnc2c(c1)c(-c1c(Cl)cc(C(=O)O)cc1Cl)cn2[C@@H](C)c1ccccn1 [P-0197, (S)-3,5-dichloro-4-(5-(3,5-dimethylisoxazol-4-yl)-1-(1-(pyridin-2-yl)ethyl)-1H-pyrrolo[2,3-b]pyridin-3-yl)benzoic acid] | 0.1 to 1000
Cc1noc(C)c1-c1cnc2c(c1)c(-c1c(Cl)cc(C(=O)O)cc1OC(F)(F)F)cn2C(C1CC1)C1CC1 [P-0198, 3-chloro-4-(1-(dicyclopropylmethyl)-5-(3,5-dimethylisoxazol-4-yl)-1H-pyrrolo[2,3-b]pyridin-3-yl)-5-(trifluoromethoxy)benzoic acid] | 0.1 to 1000
